Test results as given in patent US20220062190A1, “Therapeutic Agent and Nutraceutical Compositions And Methods for Making and Using Same” (NUREVELATION, LLC, priority 2020, published 2022).
Structures can show the parent of a compound that is named as a salt.

How the values were obtained:
[1] = octanol/water; value not marked predicted; source not stated; cited from earlier work
[2] = system: movement disorder due to antipsychotics known as dystonia and parkinsonism; conditions: use column of Table 1A; cited from earlier work
[3] = Solubility in water when preparing mass spectrometry standards; assay type: physicochemical; conditions: standard and batch prepared in methanol instead
Description: Samples for mass spectrometry were weighed and then concentrated to 5 mg/mL. The samples were further diluted to 0.1 mg/mL for analysis in 50/50 water to methanol. Standards were prepared to 20 μg/mL in optima grade methanol or water. The following standards were prepared in water at 20 μg/mL: bethanechol chloride, chloroquine diphosphate, cyclobenzaprine hydrochloride, D-penicillamine, ondansetron hydrochloride, venlafaxine hydrochloride, and donepezil hydrochloride.

SMILES | LogP [1] | further results
NCC(CC(=O)O)c1ccc(Cl)cc1 (centres unmarked) [Baclofen] | 1.3 | –
CN1[C@@H]2CC[C@H]1C[C@@H](OC(c1ccccc1)c1ccccc1)C2 [Benztropine] | – | duration of benefits [2]: ≤ 10 h; time until benefits are seen [2]: ≤ 2 h
CC(C[N+](C)(C)C)OC(N)=O (centres unmarked) [Bethanechol chloride] | −4.1 | –
COc1ccccc1OCCNCC(O)COc1cccc2[nH]c3ccccc3c12 (centres unmarked) [Carvedilol] | 3.8 | –
CN(C)CCC=C1c2ccccc2C=Cc2ccccc21 [Cyclobenzaprine hydrochloride] | 5.2 | –
CC(C)(S)[C@@H](N)C(=O)O [D-penicillamine] | −1.78 | –
CC1=NS(=O)(=O)c2cc(Cl)ccc2N1 [Diazoxide] | 1.20 | –
C[C@H]1c2cccc(O)c2C(=O)C2=C(O)[C@]3(O)C(=O)C(C(N)=O)=C(O)[C@@H](N(C)C)[C@@H]3[C@@H](O)[C@@H]21 [Doxycycline] | 0.63 | –
C#C[C@]1(O)CC[C@H]2[C@@H]3CCc4cc(O)ccc4[C@H]3CC[C@@]21C [Ethinylestradiol] | 3.67 | –
COc1ccccc1OCC(O)CO (centres unmarked) [Guaifenesin] | 1.39 | –
CCCCC1=NC2(CCCC2)C(=O)N1Cc1ccc(-c2ccccc2-c2nnn[nH]2)cc1 [Irbesartan] | 4.5 | –
Nc1nnc(-c2cccc(Cl)c2Cl)c(N)n1 [Lamotrigine] | 1.93 | –
N[C@@H](Cc1cc(I)c(Oc2cc(I)c(O)c(I)c2)c(I)c1)C(=O)O [Levothyroxine] | 4.0 | –
NCCCC[C@H](N[C@@H](CCc1ccccc1)C(=O)O)C(=O)N1CCC[C@H]1C(=O)O [Lisinopril dihydrate] | −1.01 | –
CC[C@H](C)C(=O)O[C@H]1C[C@@H](C)C=C2C=C[C@H](C)[C@H](CC[C@@H]3C[C@@H](O)CC(=O)O3)[C@H]21 [Lovaststin] | 4.08 | –
Cc1cnc(NC(=O)C2=C(O)c3ccccc3S(=O)(=O)N2C)s1 [Meloxicam] | 0.1 | –
Nc1ccc(O)c(C(=O)O)c1 [Mesalamine] | −0.29 | –
NC(=O)c1cnccn1 [Pyrazinamide] | −0.60 | –
Cc1ncc(CO)c(CO)c1O [Pyridoxine] | −0.77 | –
CNC(=C[N+](=O)[O-])NCCSCc1ccc(CN(C)C)o1 [Ranitidine] | 0.2 | –
Cc1nc2n(c(=O)c1CCN1CCC(c3noc4cc(F)ccc34)CC1)CCCC2 [Risperidone] | – | solubility in water [3]: insolubility in water
CC(=O)S[C@@H]1CC2=CC(=O)CC[C@]2(C)[C@H]2CC[C@@]3(C)[C@@H](CC[C@@]34CCC(=O)O4)[C@H]12 [Spironolactone] | 2.78 | –
